Target: T1, human nicotinic alpha7 WT receptor (Homo sapiens, UniProt P36544)
T1 construct: expressed in transfected cells; host or cells: GH4C1 (rat pituitary-derived cell line), RPA clone #34.7
Test: Nicotinic alpha 7 Modulation Assay (FLIPR)
Assay type: cell-based
Conditions: GH4C1 cells stably expressing human nicotinic alpha7 WT receptor, ACh 30 μM, positive control 1 μM PNU-120596
Protocol: Nicotinic alpha 7 Modulation Assay
Cell Culture Growth Media: F10 medium (Invitrogen), 2.5% Fetal Bovine Serum (FBS, Summit Biotechnology); 15% heat inactivated donor Horse Serum (Invitrogen), 250 μg/ml Hygromycin B (Invitrogen); and 100 nM Methyllicaconite (MLA, Sigma) are added to each new culture by 50-fold dilution of stock solution prepared in H2O at 5 μM.
GH4C1 cells (rat pituitary-derived cell line) stably expressing human nicotinic alpha7 WT receptor (RPA clone #34.7) are cultivated in cell culture growth media (described above) at 37 C in a humidified atmosphere containing 4% CO2. […]
The alpha 7 nAChR assay is a cell-based functional readout designed to determine the effect of test compounds to either directly activate nicotinic receptor channels and/or to modulate activation by the native agonist acetylcholine (ACh, Sigma). […]
Assay of test compound effect on activation of the alpha7 nicotinic receptor channel is done by measurement of cytosolic [Ca^2+] elevation as reported by increased FLUO-3 fluorescence using a two addition experimental design and FLIPR™ (Molecular Devices). Following a 30 second baseline recording, test compounds are added online (dilution scheme below) and cell response is recorded for an additional 5 minutes. After a second addition of ACh (30 μM, FAC), plates are read for an additional 4 minutes. […]

T1 sequence (P36544 23-502): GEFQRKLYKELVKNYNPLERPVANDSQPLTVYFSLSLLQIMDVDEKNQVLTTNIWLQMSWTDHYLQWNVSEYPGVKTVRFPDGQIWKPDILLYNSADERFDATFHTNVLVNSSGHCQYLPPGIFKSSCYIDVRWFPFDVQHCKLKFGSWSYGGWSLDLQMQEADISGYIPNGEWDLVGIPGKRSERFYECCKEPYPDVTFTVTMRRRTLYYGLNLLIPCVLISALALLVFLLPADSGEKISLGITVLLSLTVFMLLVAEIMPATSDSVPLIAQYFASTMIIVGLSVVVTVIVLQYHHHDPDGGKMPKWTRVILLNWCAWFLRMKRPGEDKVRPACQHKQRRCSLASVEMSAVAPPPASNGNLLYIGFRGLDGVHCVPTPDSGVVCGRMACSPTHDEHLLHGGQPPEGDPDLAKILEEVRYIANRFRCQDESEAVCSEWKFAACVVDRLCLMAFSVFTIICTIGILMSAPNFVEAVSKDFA

positive allosteric modulation: 467.65
SMILES: COc1ccccc1-c1cc(C(=O)NCCc2ccc(S(N)(=O)=O)cc2)cc(-n2cnnn2)c1 [Compound 4, 2′-Methoxy-5-tetrazol-1-yl-biphenyl-3-carboxylic acid [2-(4-sulfamoyl-phenyl)-ethyl]-amide]
